According to patent US7678386B2, “Liposomes coated with selected antibodies that bind to aminophospholipids” (Board of Regents the University of Texas, priority 2002, dated 2010):

B1: IL-1α: recombinant murine interleukin-1 alpha (protein, UniProt P01582 115-270, looked up)
Interleukin-1 alpha: SAPYTYQSDLRYKLMKLVRQKFVMNDSLNQTIYQDVDKHYLSTTWLNDLQQEVKFDMYAYSSGGDDSKYPVTLKISDSQLFVSAQGEDQPVLLKELPETPKLITGSETDLIFFWKSINSKNYFTSAAYPELFIATKEQSRVHLARGLPSMTDFQIS
B2: IL-1β: recombinant murine interleukin-1 beta (protein, UniProt P10749 118-269, looked up)
Interleukin-1 beta: VPIRQLHYRLRDEQQKSLVLSDPYELKALHLNGQNINQQVIFSMSFVQGEPSNDKIPVALGLKGKNLYLSCVMKDGTPTLQLESVDPKQYPKKKMEKRFVFNKIEVKSKVEFESAEFPNWYISTSQAEHKPVFLGNNSGQDIIDFTMESVSS

Columns and labels:
[1] = patients having progressive disease before treatment; cited from earlier work
[2] = system: ABAE cells; experiment: Detection of PS on cultured endothelial cells by 125I-labeled annexin V; format: cell-based, bovine; settings: for 125I-Annexin V (% of Max binding), ABAE cells: 24 h, concentration as listed per treatment; for anionic phospholipid-exposure (% of the maximum): ABAE cells, hypoxia/reoxygenation in the presence of sub-toxic cytokine
Procedure: (§1) All reagents were diluted in medium containing 10% serum and incubated with the cells at 37° C. for 24 h.
(§2) To study the effect of hypoxia, cells were seeded on 24 well plates and were incubated in a humidified normoxic atmosphere (21% O2. 5% CO2) for 48 h before being transferred to a humidified hypoxic atmosphere (1% O2, 5% CO2, 94% N2) in a sealed chamber (Billups Rothenberg Inc., Del Mar, Calif.). Cells were incubated in a hypoxic chamber for 24 h at 37° C. and were then returned to a normoxic environment for 4 h at 37° C. The cells were compared to a parallel culture from an identical passage, seeded on the same day and maintained entirely under normoxic conditions. In some studies, IL-1α (10 ng/ml) and TNFα (20 ng/ml) were added to the medium before transfer to the hypoxic chamber.
(§3) After treatment with the reagents described above, treated and control cells were incubated with 7.1 pmoles of ^125I-labeled annexin V (200 μl/well) in the binding buffer. After 2 h incubation at room temperature, cells were washed extensively and dissolved in 0.5 M of NaOH. The entire volume of 0.5 ml was transferred to plastic tubes and counted in a gamma counter. Non-specific binding was determined in the presence of 5 mM EDTA and was subtracted from experimental values. The results were expressed as net pmoles of cell-bound annexin V, normalized per 1×10^6 cells.
(§4) Maximal binding of annexin V was determined on cells simultaneously treated with actinomycin D and TNFα (50 ng/ml of each component). As has been previously reported, these agents cause apoptosis and PS exposure in 90-100% of endothelial cells (Lucas et al., 1998). Basal binding of ^125I-annexin V to untreated cells was determined in the presence of medium with 10% serum. The amount of ^125I-annexin V that bound to the untreated cultures was subtracted from that in the treated cultures. Exposure of PS was calculated according to the following formula: cell-bound annexin V (pmoles) under experimental conditions divided by maximal annexin V binding (pmoles), multiplied by 100. Each study was performed in duplicate and was performed at least three times. Mean values were calculated. The SE of the mean values from three separate experiments was less than 5%.

[3] = system: bEnd.3 cells; experiment: as above; format: cell-based, mouse; settings: for 125I-Annexin V (% of Max binding), bEnd.3 cells: 24 h, concentration as listed per treatment
Procedure: as §1, §2, §3, §4

[4] = system: bEnd.3 endothelial cells; experiment: Induction of PS by H2O2: anti-PS IgM staining and Trypan Blue exclusion
[5] = system: HUVEC and HMVEC; experiment: Induction of PS exposure on endothelial cells by docetaxel (FACS, 3G4 binding); format: cell-based, human; settings: 10 nM, 24 hrs
Procedure: FIG. 24A and FIG. 24B. Induction of PS exposure on endothelial cells by docetaxel. Human umbilical vein endothelial cells (HUVEC) and human microvessel endothelial cells (HMVEC) were treated with 10 nM of docetaxel for 24 hrs. […] The cells were then washed twice, FITC labeled goat anti-mouse IgG was added and the cells incubated for a further 30 mins. on ice. The cells were then washed and analyzed by FACS using a FACSCalibur cytometer (Becton-Dickinson, San Jose, Calif.) with CellQuest acquisition software.
(§5) The induction of PS exposure on endothelial cells by subclinical concentrations of docetaxel was examined in vitro by FACS analysis. Human umbilical vein endothelial cells (HUVEC) and human microvessel endothelial cells (HMVEC) were treated with 10 nM of docetaxel for 24 hrs and examined by FACS. […] Docetaxel incubations for 48 and 72 hrs were also conducted.

[6] = system: tumor cell lines; experiment: Induction of PS exposure on tumor cell lines by docetaxel (FACS); format: cell-based; settings: 10 nM, 24 hrs
Procedure: FIG. 25A, FIG. 25B and FIG. 25C. Induction of PS exposure on tumor cell lines by docetaxel. Mouse lewis lung carcinoma 3LL, mouse colon carcinoma Colo26 and human breast cancer MDA-MB-435 cells were treated with 10 nM of docetaxel for 24 hrs. […] The cells were then washed twice, FITC labeled goat anti-mouse IgG was added and the cells incubated for a further 30 mins. on ice. The cells were then washed and analyzed by FACS using a FACSCalibur cytometer (Becton-Dickinson, San Jose, Calif.) with CellQuest acquisition software.
FIG. 26. Induction of PS exposure on human breast cancer MDA-MB-231 cells by docetaxel. Human breast cancer MDA-MB-231 cells were treated with 10 nM of docetaxel for 24 hrs. […] The cells were then washed twice, FITC labeled anti-IgG was added and the cells analyzed by FACS, as above. There is a significant increase in ch3G4 binding as compared to control, human IgG.
(§6) The in vitro induction of PS exposure by subclinical concentrations of docetaxel was also examined by FACS analysis using a panel of tumor cell lines. Mouse lewis lung carcinoma 3 LL, mouse colon carcinoma Colo26 and human breast cancer MDA-MB-435 cells were treated with 10 nM of docetaxel for 24 hrs and examined by FACS. […] Docetaxel incubations for 48 and 72 hrs were also conducted.

[7] = system: human umbilical vein endothelial cells (HUVEC); experiment: PS exposure on endothelial cells by FACS (3G4 binding), HUVEC; format: cell-based; settings: 10 nM docetaxel, 24 hrs, compared to untreated cells
Procedure: as §5

[8] = system: human microvessel endothelial cells (HMVEC); experiment: PS exposure on endothelial cells by FACS (3G4 binding), HMVEC; format: cell-based; settings: 10 nM docetaxel, 24 hrs, compared to untreated cells
Procedure: as §5

[9] = system: Mouse lewis lung carcinoma 3 LL; experiment: PS exposure on tumor cells by FACS (3G4 binding), 3LL; format: cell-based; settings: 3 LL cells, 10 nM docetaxel, 24 hrs, compared with untreated cells
Procedure: as §6

[10] = system: mouse colon carcinoma Colo26; experiment: PS exposure on tumor cells by FACS (3G4 binding), Colo26; format: cell-based; settings: 10 nM docetaxel, 24 hrs, compared with untreated cells
Procedure: as §6

[11] = system: human breast cancer MDA-MB-435 cells; experiment: PS exposure on tumor cells by FACS (3G4 binding), MDA-MB-435; format: cell-based; settings: 10 nM docetaxel, 24 hrs, compared with untreated cells
Procedure: as §6

[12] = system: Mouse melanoma B16; experiment: PS exposure on tumor cells by FACS (3G4 binding), B16; format: cell-based; settings: docetaxel, compared with untreated cells
[13] = system: mouse firbrosarcoma Meth A; experiment: PS exposure on tumor cells by FACS (3G4 binding), Meth A; format: cell-based; settings: docetaxel, compared with untreated cells
[14] = breast cancer patients; cited from earlier work

Row | Molecule | 125I-Annexin V (% of Max binding), ABAE cells [2] | 125I-Annexin V (% of Max binding), bEnd.3 cells [3] | other results
1 | NC(=O)c1nnn(Cc2cc(Cl)c(C(=O)c3ccc(Cl)cc3)c(Cl)c2)c1N [CAI, carboxyamidotriazole] | – | – | cancer patients with disease stabilization [1]: 49%
2 | OO [Hydrogen peroxide, hydrogen peroxide] | 95.5% | 98.4% | externalization of PS by 125I-annexin V binding ([2]; 100 to 200 μM, both cell types): 95%; cells that bound biotinylated annexin V (immunohistochemically) ([2]; ABAE and bEnd.3 cells, 100 to 200 μM): More than 70%; cells with translocation of anionic phospholipids to the external surface (125I-labeled annexin V) ([3]; 200 μM for 2 h): 70-90%; cells with PS detected at the cell surface ([4]; concentrations as low as 20 μM): about 50%; cell viability ([4]; high concentrations, 1 hour): 50-60%; cells with PS translocation ([4]; high concentrations, 1 hour): ~90%; cell viability ([4]; low levels of H2O2, identical to untreated cells): 95%
3 | CC(=O)O[C@@]12CO[C@@H]1C[C@H](O)[C@@]1(C)C(=O)[C@H](O)C3=C(C)[C@@H](OC(=O)[C@H](O)[C@@H](NC(=O)OC(C)(C)C)c4ccccc4)C[C@@](O)([C@@H](OC(=O)c4ccccc4)[C@H]21)C3(C)C [docetaxel] | – | – | 3G4 binding vs. untreated cells ([5]; HMVEC): significant increase in 3G4 binding; 3G4 binding vs. untreated cells ([5]; HUVEC): significant increase in 3G4 binding; 3G4 binding vs. untreated cells ([6]; 3LL, Colo26, MDA-MB-435 cells): significant increase in 3G4 binding; antibody (ch3G4) binding to treated cells ([6]; MDA-MB-231, vs. human IgG): significant increase in antibody binding; 3G4 binding by FACS (PS exposure) [7]: significant increase in 3G4 binding; 3G4 binding by FACS (PS exposure) [8]: significant increase in 3G4 binding; 3G4 binding by FACS (PS exposure) [9]: significant increase in 3G4 binding; 3G4 binding by FACS (PS exposure) [10]: significant increase in 3G4 binding; 3G4 binding by FACS (PS exposure) [11]: significant increase in 3G4 binding; 3G4 binding by FACS (PS exposure) [12]: significant increase in 3G4 binding; 3G4 binding by FACS (PS exposure) [13]: significant increase in 3G4 binding; serum cytokine levels and NK/LAK cell activity [14]: increase in serum IFN-γ, IL-2, IL-6 and GM-CSF cytokine levels and enhancement of NK and LAK cell activity
4 | FGF-2: human fibroblast growth factor-2 | 0% | 0% | –
5 | Hypoxia + IL-1α: IL-1α (10 ng/ml) under hypoxia/reoxygenation | 26.0% | 31.0% | –
6 | IL-6: interleukin-6 | 0% | 0% | –
7 | IL-8: interleukin-8 | 0% | 0% | –
8 | IL-10: interleukin-10 | 0% | 0% | –
9 | Interferon | 8.6% | 2.8% | –
10 | Scatter factor: recombinant hepatocyte growth factor (HGF or scatter factor) | 0% | 0% | –
11 | TGF β1: growth factor | 0% | 0% | –
12 | TNFα | 7.4% | 13.7% | anionic phospholipid-exposure (% of the maximum) [2]: 33%
13 | Thrombin | 8.8% | 17.4% | –
14 | VEGF | 0% | 0% | –
15 | B1 | 6.4% | 7.5% | anionic phospholipid-exposure (% of the maximum) [2]: 26%
16 | B2 | 5.8% | 5.5% | –
